For orientation: IC50 means the concentration that gives 50% inhibition. The term viability denotes a per cent measure of how many cells are alive, often set against a control.

We go through two compounds from publication PMC11721939, “Novel tetrahydronaphthalen-1-yl-phenethyl ureas: synthesis and dual antibacterial-anticancer activities” (Journal of Enzyme Inhibition and Medicinal Chemistry, 2023).

Read-outs that look alike come from different tables or passages of the source.

The subject of series [1] is HeLa cells. The following applies: read-out: Cytotoxic activity IC50, cisplatin positive control; cited from earlier work.
Series [2] concerns SH-SY5Y cells. To be noted: read-out: Cytotoxic activity IC50, cisplatin positive control; cited from earlier work.
Another series relates to PCS-201-012 cells. Set-up: method as in PMID 27488500. The following applies: fibroblast cells (PCS-201-012 column), cisplatin; read-out: Cytotoxic activity IC50; cited from earlier work.
The test system of series [3] is SH-SY5Y cells. The series can be described thus: WST-8 cytotoxicity assay. It counts as cell-based, human. The following applies: Homo sapiens, SH-SY5Y, 48 h, SH-SY5Y, 48 h, WST-8, n = 4; read-out: Cytotoxic activity IC50. As for the experimental part:
(§1) The cells in culture were frequently sub-cultured, about 2–3 times weekly, until they reached a confluence of 80–90%. The experiments were organised into seven cell groups as follows: group I served as the control, while groups II through VII were pre-treated with varying dosages of the synthesised ureas (ranging from 12.5 µM to 500 µM). The cytotoxic potential of these ureas was assessed in vitro using the Cell Viability Detection Kit-8 (CVDK-8, Ecotech Biotechnology, Erzurum, Turkey), a method based on WST-8 quantification for human primary dermal fibroblasts and cervical cancer cells. Healthy fibroblast, HeLa, and SH-SY5Y cells were allocated in 96-well plates, with each well containing 5 × 10^3 cells in 100 µL of DMEM:F12 (supplemented with 1% penicillin/streptomycin and 10% FBS). After an overnight growth, these cells were exposed to specified concentrations of the synthesised ureas for a duration of 48 h at 37 °C in a 5% CO2 atmosphere. Cisplatin acted as the positive control with concentration gradients of 0–250 µM for HeLa cells and 0–20 µM for the SH-SY5Y cells. Post incubation, in sterile, dimly lit conditions, 10% WST-8 solution was added to every well and further incubated at 37 °C within 5% CO2 for another 3–4 h. The optical density of the 96-well plate was gauged at a 450 nm wavelength using a spectrophotometer (BioTek, EPOCH, Santa Clara, CA). The control group’s main purpose was to measure the absorbance of just the cells and the growth medium.

Series [4] deals with HeLa cells. The series can be described thus: WST-8 cytotoxicity assay. It counts as cell-based, human. The following applies: Homo sapiens; HeLa cells, 48 h, WST-8, n = 4; read-out: Cytotoxic activity IC50. As for the experimental part: as §1
Series [5] can be described thus: WST-8 cytotoxicity assay. It counts as cell-based, human. The following applies: human, SH-SY5Y cells, SH-SY5Y, 48 h, read-out: Cell viability. As for the experimental part: as §1
For orientation: Tetrazolium dyes change colour on reduction, which living cells bring about.

The test system of series [6] is all tested bacterial strains. Briefly: Antibacterial activity (MIC) summarised over all tested bacterial strains. The following applies: against the studied bacteria. It counts as cell-based. The method, then:
The bacteria employed for evaluation included Acinetobacter baumannii ATCC 1605, Enterococcus faecalis ATCC 49452, Pseudomonas aeruginosa ATCC 9027, and Staphylococcus aureus MRSA ATCC 43300. These strains were sourced from the Molecular Biology and Genetics Laboratory at Erzurum Technical University. They were immersed in Mueller-Hinton Broth (MHB) and then incubated at a temperature of 37 °C for a duration of 16–24 h.
Bacteria were adjusted to a McFarland standardisation of 0.5, equivalent to a cell density of 1.5 × 10^8/ml, and were then introduced into MHB. Subsequently, a 100 μl volume of this bacterial mixture was spread onto Mueller-Hinton agar plates. Sterile empty discs were then treated with the formulated ureas at concentrations of 1000, 500, and 250 µM. Oflaxin ([…]) and netilmicin ([…]) were used as positive controls, while DMSO served as the negative control. The plates were then placed in an incubator at 37 °C for a period ranging from 24 to 72 h, depending on the optimal conditions. Post incubation, the diameter of the inhibition zones was gauged to determine the antibacterial efficacy. […]
The synthesised ureas’ minimum inhibitory concentrations (MICs) against the bacterial samples were ascertained using the microdilution broth technique. […] Post incubation, the growth of the bacteria was assessed at 600 nm using the Fluoroskan Ascent® FL. […]

Series [7] is described as follows: WST-8 cytotoxicity assay. The following applies: human, PCS-201-012 healthy primary dermal fibroblast cells, PCS-201-012 healthy fibroblast cells, WST-8, n = 4, read-out: Cytotoxic activity IC50. It counts as cell-based. As for the experimental part:
as §1

Turning to `N.N.[Cl][Pt][Cl]` [Cisplatin, cis-diammineplatinum(II) dichloride], the IC50 is above 50 µM with HeLa cells [1], 10 µM with SH-SY5Y cells [2] and above 100 µM with PCS-201-012 cells.
Take `COc1cccc2c1CCCC2NC(=O)NCCc1ccccc1` (stereo not shown) [Compound 14, 1-(5-methoxy-1,2,3,4-tetrahydronaphthalen-1-yl)-3-phenethylurea]: the values for the IC50 in the series with SH-SY5Y cells [3] and in the series on HeLa cells [4] were 9.7 µM and 2600 nM, respectively. For the same compound, in the series “WST-8 cytotoxicity assay [5]” (12.5 µM), the viability at 48 h, 12.5 µM was found to be 25.5%. The viability at 48 h, 25 µM in the series “WST-8 cytotoxicity assay [5]” (25 µM) turned out to be 8.4%. In the series “WST-8 cytotoxicity assay [5]” (50 µM), the viability at 48 h, 50 µM was determined as 4.68%. Moreover, the viability at 48 h, 100 µM in “WST-8 cytotoxicity assay [5]” (100 µM) amounted to 4.87%. For the same compound, in “WST-8 cytotoxicity assay [5]” (300 µM), the viability at 48 h, 300 µM came to 3.77%. For the same compound, in “WST-8 cytotoxicity assay [5]” (500 µM), the viability at 48 h, 500 µM came to 1.67%. In series [6], the “Antibacterial properties (in words)” value is on record as “did not display any antibacterial properties”. Besides, the IC50 at 48 h in “WST-8 cytotoxicity assay [7]” stood at 7.9 µM.
